Assay type in all cases: physicochemical
A short description of data set [1]: Relative volatility, separation of p-xylene from m-xylene, vapor-liquid equilibrium still. To be noted: for effectiveness in bringing m-xylene out as the overhead from p-xylene: alcohols; for Relative Volatility: vapor-liquid equilibrium still. From the text: The data in Table 5 was obtained in a vapor-liquid equilibrium still.
Twenty grams of m-xylene, 60 grams of p-xylene, 30 grams of cyclododecanol and 15 grams of benzyl alcohol were charged to the vapor-liquid equilibrium still and refluxed for five hours.
Twenty grams of m-xylene, 60 grams of p-xylene, 30 grams of cyclododecanol and 15 grams of diisobutyl carbinol were charged to the vapor-liquid equilibrium still and refluxed for four hours.

Data set [2] is described as follows: Relative volatility, separation of m-xylene from o-xylene, vapor-liquid equilibrium still. To be noted: for effectiveness in separation of m-xylene from o-xylene: in words. The protocol:
The data in Table 2 was obtained in a vapor-liquid equilibrium still.
Ten grams of m-xylene, 30 grams of o-xylene and 20 grams of cyclododecanol were charged to a vapor-liquid equilibrium still and refluxed for three hours.
Ten grams of m-xylene, 30 grams of o-xylene, 20 grams of cyclododecanol and ten grams of diisobutyl carbinol were charged to the vapor-liquid equilibrium still and refluxed for 14 hours.

A short description of data set [3]: Extractive distillation run in glass perforated plate rectification column, m-xylene from o-xylene. To be noted: for Relative Volatility: m-xylene from o-xylene, 7.3 theoretical plates, Fenske equation. As for the experimental part:
It yielded a relative volatility of 1.31 after one hour and 1.37 after two hours of continuous operation.
225 grams of m-xylene and 75 grams of o-xylene were placed in the stillpot of a glass perforated plate rectification column containing 7.3 theoretical plates, and heated. When refluxing began, an extractive agent comprising cyclododecanol was pumped into the column at a rate of 15 ml/min. The temperature of the extractive agent as it entered the column was 95° C. After establishing the feed rate of the extractive agent, the heat input to the column was adjusted to give a total reflux rate of 40 ml/min. After one hour of operation, overhead and bottoms samples of approximately two ml. were collected and analysed by gas chromatography. The overhead analysis was 95.5% m-xylene, 4.5% o-xylene and the bottoms analysis was 75% m-xylene, 25% o-xylene. Using these compositions in the Fenske equation, with the number of theoretical plates in the column being 7.3, gave an average relative volatility of 1.31 for each theoretical plate. After a total of two hours of continuous operation, samples of overhead and bottoms were again taken and analysed. The overhead analysis was 96.5% m-xylene, 3.5% o-xylene; the bottoms analysis was 73.6% m-xylene, 26.4% o-xylene which is a relative volatility of 1.37.

The mark [4] stands for this setting: * brings the m-xylene out as overhead (m-xylene to p-xylene).
Where [5] appears, read: m-xylene to o-xylene, effective agents (alone or mixed as labelled), vapor-liquid equilibrium still.
The mark [6] stands for this setting: p-xylene from m-xylene, in words.
The mark [7] stands for this setting: m-xylene from o-xylene, ineffective agents when mixed with cyclododecanol.

For `CCCCCCCCCCO` [1-Decanol], in data set [1] (in words), the “effectiveness in bringing m-xylene out as the overhead from p-xylene” value (“effectiveness … from p-xylene” for short) is “effective in bringing m-xylene out as the overhead”. Also, the “effectiveness in separation of m-xylene from o-xylene” value (“effectiveness in separation” below) in data set [2] (alcohols) is listed as “effective”.

On to `CCCCCCCCCCCCO` [1-Dodecanol], for which the “Relative Volatility” value is 1.11 in data set [1] (setting [4]) and 1.31 in data set [2] (setting [5]). The “effectiveness … from p-xylene” value in data set [1] (in words) was “effective in bringing m-xylene out as the overhead”. For the same compound, in data set [2] (alcohols), the “effectiveness in separation” value is “effective”.

Take `CCCCCCCCCO` [1-Nonanol]: the “Relative Volatility” value in data set [1] (setting [4]) came out at 1.14. Further, the “effectiveness … from p-xylene” value in data set [1] (in words) is on record as “effective in bringing m-xylene out as the overhead”. Further, the “effectiveness in separation” value in data set [2] (alcohols) was “effective”.

As for `CCCCCCCCO` [1-Octanol], the “enhancement of relative volatility when mixed with cyclododecanol” value (shortened to “enhancement of relative volatility”) in data set [1] (setting [6]) is on record as “enhance the relative volatility”. Besides, the “effectiveness in separation” value in data set [2] (alcohols) is listed as “effective”. Moreover, the “Relative Volatility” value in data set [2] (setting [5]) worked out at 1.38.

For `CCCCC(CC)COC(C)=O` (stereo not drawn) [2-Ethyl hexyl acetate], the “Relative Volatility” value in data set [2] (setting [7]) was 1.22.

Consider `CCCCC(CC)CO` (stereo not drawn) [2-Ethyl-1-hexanol], for which the “Relative Volatility” value in data set [2] (setting [7]) is recorded as 1.29.

With `Cc1ccccc1[N+](=O)[O-]` [2-Nitrotouene], the “Relative Volatility” value in data set [2] (setting [7]) stood at 1.25.

On to `CCCCCCC(C)O` (stereo not drawn) [2-Octanol], for which the “effectiveness in separation” value in data set [2] (alcohols) is listed as “effective”. For the same compound, in data set [2] (setting [5]), the “Relative Volatility” value is 1.30.

For the compound `OCc1ccccc1` [Benzyl alcohol], the “Relative Volatility” value in data set [1] (setting [4]) was 1.19. For the same compound, the “effectiveness … from p-xylene” value in data set [1] (in words) is recorded as “effective in bringing m-xylene out as the overhead”. The “enhancement of relative volatility” value in data set [1] (setting [6]) is listed as “enhance the relative volatility”.

For the compound `O=C(OCc1ccccc1)c1ccccc1` [Benzyl benzoate], the “Relative Volatility” value in data set [2] (setting [7]) worked out at 1.0.

Turning to `CCCCOC(=O)CCC` [Butyl butyrate], the “Relative Volatility” value in data set [2] is 1.26.

On to `OC1CCCCCCCCCCC1` [Cyclododecanol], for which the “xylene brought out as overhead product” value in data set [1] (setting [6]) was “brings out the p-xylene as overhead product”. The “Relative Volatility” value in data set [1] (p-xylene to m-xylene (no asterisk)) came to 1.11; in data set [3] (1 hour) it was 1.31; in data set [3] (2 hours), 1.37; in data set [2] (setting [5]), 1.37. Moreover, the “Weight % m-Xylene” value worked out at 75% in data set [3] (bottoms, 1 hour); 73.6% in data set [3] (bottoms, 2 hours); 95.5% in data set [3] (overhead, 1 hour); 96.5% in data set [3] (overhead, 2 hours). For the same compound, the “Weight % o-Xylene” value in data set [3] (bottoms, 1 hour) amounted to 25%; in data set [3] (bottoms, 2 hours), 26.4%; in data set [3] (overhead, 1 hour), 4.5%; in data set [3] (overhead, 2 hours), 3.5%. Also, the “effectiveness in separation” value in data set [2] (alcohols) was “effective”. Also, the “liquid composition, m-xylene” value in data set [2] (vapor-liquid equilibrium still) came to 23.6%. Further, in data set [2] (vapor-liquid equilibrium still), the “liquid composition, o-xylene” value worked out at 76.4%. Further, the “vapor composition, m-xylene” value in data set [2] (vapor-liquid equilibrium still) was 29.8%. Also, in data set [2] (vapor-liquid equilibrium still), the “vapor composition, o-xylene” value came out at 70.2%.

Take `CCOC(=O)CC(=O)OCC` [Diethyl malonate]: the “Relative Volatility” value in data set [2] (setting [7]) is 1.23.

As for `CCCCCCOCCOCCO` [Diethylene glycol hexyl ether], the “Relative Volatility” value in data set [2] (setting [7]) came out at 0.7.

In the case of `CC(C)CC(O)CC(C)C` [Diisobutyl carbinol], the results for the “Relative Volatility” value in data set [1] (setting [4]) and in data set [2] (setting [5]) were 1.23 and 1.27, respectively. In addition, in data set [1] (in words), the “effectiveness … from p-xylene” value is listed as “effective in bringing m-xylene out as the overhead”. In addition, the “enhancement of relative volatility” value in data set [1] (setting [6]) is “enhance the relative volatility”. Moreover, the “effectiveness in separation” value in data set [2] (alcohols) is reported as “effective”.

Consider `CCCCOCCOC(C)=O` [Ethylene glycol butyl ether acetate], for which the “enhancement of relative volatility” value in data set [1] (setting [6]) is “enhance the relative volatility”. In addition, the “Relative Volatility” value in data set [2] (setting [7]) is reported as 1.1.

On to `CC(C)CCCCCCCO` [Isodecanol (ASHLAND), Isodecanol], for which the “Relative Volatility” value in data set [2] (setting [5]) came out at 1.27.

`CC(C)CCCCCCCO` [Isodecanol (EXXON), Isodecanol]: in data set [2] (setting [5]), the “Relative Volatility” value is listed as 1.18.

On to `CC(C)CCCCCCCO` [Isodecanol], for which the “effectiveness … from p-xylene” value in data set [1] (in words) is “effective in bringing m-xylene out as the overhead”. The “effectiveness in separation” value in data set [2] (alcohols) is given as “effective”.

For `CC(C)CCCCCCO` [Isononyl alcohol (EXXON), Isononyl alcohol], the “effectiveness in separation” value in data set [2] (alcohols) is reported as “effective”. The “Relative Volatility” value in data set [2] (setting [5]) was found to be 1.22.

With `CC(C)CCCCCO` [Isooctanol (U.C.), Isooctanol], in data set [2] (setting [5]), the “Relative Volatility” value is 1.27.

For the compound `COC(=O)c1ccccc1` [Methyl benzoate], the “Relative Volatility” value in data set [2] (setting [7]) was 1.0.

As to `OCCc1ccccc1` [Phenethyl alcohol], the “enhancement of relative volatility” value in data set [1] (setting [6]) is “enhance the relative volatility”. The “Relative Volatility” value in data set [2] (setting [7]) came to 1.29.

For the compound `CCC(=O)c1ccccc1` [Propiophenone], the “enhancement of relative volatility” value in data set [1] (setting [6]) is given as “enhance the relative volatility”. In addition, the “Relative Volatility” value in data set [2] (setting [7]) was 0.8.

Regarding `CC1COC(=O)O1` (stereo not drawn) [Propylene carbonate], in data set [2] (setting [7]), the “Relative Volatility” value is given as 1.07.

For the compound `CCCCCCCCCCCO` [Undecyl alcohol], the “Relative Volatility” value is listed as 1.14 in data set [1] (setting [4]) and 1.40 in data set [2] (setting [5]). In data set [1] (in words), the “effectiveness … from p-xylene” value is “effective in bringing m-xylene out as the overhead”. In data set [2] (alcohols), the “effectiveness in separation” value is “effective”.

For `CC(=O)c1ccccc1` [acetophenone], the “effectiveness in separation” value is “effective relative volatilities” in data set [2] (mixed with cyclododecanol) and “relatively ineffective” in data set [2] (used alone).

With `CCCCOCCOCCO` [diethylene glycol butyl ether], in data set [1] (setting [6]), the “enhancement of relative volatility” value is given as “enhance the relative volatility”. Besides, the entries for the “effectiveness in separation” value in data set [2] (mixed with cyclododecanol) and in data set [2] (used alone) were “effective relative volatilities” and “relatively ineffective”, respectively.

As for `CCOCCOCCO` [diethylene glycol ethyl ether], the “effectiveness in separation” value in data set [2] (mixed with cyclododecanol) is on record as “effective relative volatilities”; in data set [2] (used alone) it was “relatively ineffective”.

Turning to `CN(C)C=O` [dimethylformamide], the “enhancement of relative volatility” value in data set [1] (setting [6]) is on record as “enhance the relative volatility”.

`C[S+](C)[O-]` [dimethylsulfoxide]: the “enhancement of relative volatility” value in data set [1] (setting [6]) is “enhance the relative volatility”. Further, the “effectiveness in separation” value in data set [2] (mixed with cyclododecanol) was “effective relative volatilities”; in data set [2] (used alone), “relatively ineffective”.

Turning to `CCOC(=O)c1ccccc1O` [ethyl salicylate], the “effectiveness in separation” value in data set [2] (mixed with cyclododecanol) is on record as “effective relative volatilities”; in data set [2] (used alone), “relatively ineffective”.

As for `CC(C)CCCCCO` [isooctanol], in data set [2] (alcohols), the “effectiveness in separation” value is reported as “effective”.

Turning to `COC(=O)c1ccccc1O` [methyl salicylate], the “effectiveness in separation” value is reported as “effective relative volatilities” in data set [2] (mixed with cyclododecanol) and “relatively ineffective” in data set [2] (used alone).

In the case of `CC(=O)Oc1ccccc1` [phenyl acetate], the entries for the “effectiveness in separation” value in data set [2] (mixed with cyclododecanol) and in data set [2] (used alone) were “effective relative volatilities” and “relatively ineffective”, respectively.

For `O=S1(=O)CCCC1` [sulfolane], the “effectiveness in separation” value in data set [2] (mixed with cyclododecanol) is reported as “effective relative volatilities”; in data set [2] (used alone), “relatively ineffective”.

As to `OCC1CCCO1` (stereo not drawn) [tetrahydrofurfuryl alcohol], the “enhancement of relative volatility” value in data set [1] (setting [6]) was “enhance the relative volatility”.

Values taken from US5094723A, “Separation of m-xylene from p-xylene or o-xylene by extractive distillation with alcohols” (priority 1991, dated 1992).
